Consider 33 compounds from PubChem BioAssay (NCI).

Values joined by “and” are separate entries in the source; they are usually repeats but may differ in a detail not shown here. Equal entries are not always repeated.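 Protocol summary: plate cells (96-well), add compound at 5 concentrations, incubate 48 h, interpolate endpoints linearly. GI50 marks 50% less growth. TGI denotes the concentration required for complete inhibition of growth.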

Test systems include HOP-18 NSCLC; DMS 273 small cell lung; XF 498 CNS; DMS 114 small cell lung; M19-MEL melanoma; KM20L2 colon; MDA-N; SNB-78 CNS; RXF-631 renal.
Experiment in all cases: NCI tumour cell line growth inhibition, 48 h

Take `Cc1ccc(S(=O)(=O)OCC/C(=C\[Si](C)(C)C)c2ccccc2)cc1`: the TGI in the experiment with HOP-18 NSCLC, with DMS 273 small cell lung, with XF 498 CNS, in the experiment with DMS 114 small cell lung, in the experiment with M19-MEL melanoma and with KM20L2 colon was > 100 µM throughout.

Regarding `COc1cc(CNc2nc3cc(N)cc(N)c3nc2-c2ccccc2)cc(OC)c1`, in the experiment on MDA-N, the GI50 is 2.33 µM and the TGI is 5.21 µM.

With `CCc1cccc(C)c1NC(=O)CCc1nc(=S)[nH][nH]1`, the TGI with HOP-18 NSCLC, with XF 498 CNS, with DMS 114 small cell lung, in the experiment on SNB-78 CNS, in the experiment with M19-MEL melanoma and in the experiment with KM20L2 colon was > 100 µM throughout.

Turning to `COc1nc2c(c(O)c(C)c(=O)n2OC2OCC(OC(C)=O)C(OC(C)=O)C2OC(C)=O)c(=O)n1C` (centres undefined), the TGI in the experiment with DMS 273 small cell lung, with XF 498 CNS, in the experiment on DMS 114 small cell lung, in the experiment with SNB-78 CNS, in the experiment with M19-MEL melanoma and with KM20L2 colon was > 100 µM in each case.

As for `O=c1/c(=C/c2ccccc2[N+](=O)[O-])sc2nnc(-c3cccnc3)n12`, the TGI with HOP-18 NSCLC, with DMS 273 small cell lung, with XF 498 CNS, in the experiment on DMS 114 small cell lung, with SNB-78 CNS and in the experiment on M19-MEL melanoma was > 100 µM in each case. Besides, the TGI with KM20L2 colon and in the experiment on RXF-631 renal was > 100 µM in each case.

Regarding `O=C1/C(=C\c2ccccc2)CN(C(=O)CCN2CCCCC2)C/C1=C/c1ccccc1`, the TGI turned out to be 7.37 µM in the experiment on HOP-18 NSCLC; 3.1 µM with DMS 273 small cell lung; 3.84 µM with XF 498 CNS; 3.05 µM in the experiment with DMS 114 small cell lung; 5.4 µM with MDA-N; 10.6 µM in the experiment with SNB-78 CNS. The TGI in the experiment with M19-MEL melanoma is 1.78 µM; with KM20L2 colon it was 2.97 µM; in the experiment with RXF-631 renal, 4.69 µM.

For the compound `O=C1Oc2ccccc2C(=O)/C1=C1/C=C(c2ccccc2)SS1`, the TGI in the experiment on MDA-N was > 100 µM.

As to `O=C(NC12CC3CCC1CC(C3)C2)[C@@H]1CCCN1C(=O)OCc1ccccc1` (some centres undefined), the TGI in the experiment with HOP-18 NSCLC, with DMS 273 small cell lung, in the experiment with XF 498 CNS, with DMS 114 small cell lung, with SNB-78 CNS and in the experiment on M19-MEL melanoma was > 100 µM in each case. Moreover, the TGI with KM20L2 colon is > 100 µM.

As to `CCN(C)c1nc(N(C)CC)c2nc(N(C)CC)nc(N(C)CC)c2n1`, the TGI in the experiment with MDA-N was > 100 µM.

Turning to `Nc1ncc(Cc2ccc3c(c2)OCO3)c(N)n1`, the TGI with MDA-N is > 100 µM.

Take `COC(=O)CCC(NC(=S)N/N=C/c1cccs1)C(=O)OC` (centres undefined): the TGI in the experiment with HOP-18 NSCLC, with DMS 273 small cell lung, in the experiment with XF 498 CNS, in the experiment on DMS 114 small cell lung, with SNB-78 CNS and in the experiment with M19-MEL melanoma was > 100 µM throughout. Also, the TGI with KM20L2 colon and in the experiment on RXF-631 renal was > 100 µM in each case.

In the case of `O=C(NC1C(=O)NNC1c1cccc([N+](=O)[O-])c1)c1ccccc1` (centres undefined), the TGI in the experiment with HOP-18 NSCLC, in the experiment with XF 498 CNS, in the experiment with DMS 114 small cell lung, in the experiment on SNB-78 CNS, in the experiment with M19-MEL melanoma and in the experiment with KM20L2 colon was > 100 µM in each case. For the same compound, the TGI with RXF-631 renal is > 100 µM.

For the compound `O=C1NC(=O)c2c1n(Cc1ccccc1)c(=O)n2Cc1ccccc1`, the TGI in the experiment with HOP-18 NSCLC, in the experiment with DMS 273 small cell lung, in the experiment with DMS 114 small cell lung, with SNB-78 CNS, in the experiment on M19-MEL melanoma and in the experiment with KM20L2 colon was > 100 µM throughout.

For the compound `COC1N(C2CC(O)C(CO)O2)C(=O)NC(=O)C1(F)Br` (centres undefined), the TGI was > 50 µM in the experiment with HOP-18 NSCLC; 50 µM in the experiment on DMS 273 small cell lung; 50 µM in the experiment on XF 498 CNS; 50 µM with DMS 114 small cell lung; > 100 µM in the experiment with MDA-N; > 50 µM in the experiment on SNB-78 CNS. Moreover, the TGI in the experiment on KM20L2 colon and in the experiment on RXF-631 renal was 50 µM throughout.

In the case of `CCOC(=O)c1nc(C)oc1C(F)(F)F`, the TGI in the experiment on XF 498 CNS, in the experiment with DMS 114 small cell lung, in the experiment with SNB-78 CNS, with M19-MEL melanoma and in the experiment on KM20L2 colon was > 100 µM throughout.

Turning to `C[C@]12Cc3cn[nH]c3C(=O)C1CC[C@@H]1C2CC[C@@]2(C)C1CC[C@@H]2O` (some centres undefined), the TGI in the experiment with HOP-18 NSCLC, in the experiment with DMS 273 small cell lung, in the experiment with XF 498 CNS, in the experiment with DMS 114 small cell lung, with SNB-78 CNS and in the experiment on KM20L2 colon was > 100 µM in each case.

On to `O=[N+]([O-])c1ccc(Cl)c2c([N+](=O)[O-])cccc12`, for which, in the experiment with MDA-N, the TGI is 4.29 µM.

With `COc1cc([C@@H]2c3cc4c(cc3[C@@H](NC(=O)c3ccc(C#N)cc3)C3COC(=O)[C@@H]32)OCO4)cc(OC)c1O` (some centres undefined), the TGI with HOP-18 NSCLC is > 100 µM; with DMS 273 small cell lung it was 10.3 µM; in the experiment with DMS 114 small cell lung, 2.27 µM; in the experiment on SNB-78 CNS, 58.2 µM; in the experiment on M19-MEL melanoma it was 15.6 µM; in the experiment on KM20L2 colon it was 4.51 µM.

Consider `NNC(=O)C(=O)N/N=C1/CCCC1C(=O)CCC(=O)Nc1ccc(Cl)cc1` (centres undefined), for which the TGI in the experiment with HOP-18 NSCLC, in the experiment on DMS 273 small cell lung, in the experiment with XF 498 CNS, in the experiment with DMS 114 small cell lung, in the experiment with SNB-78 CNS and in the experiment with M19-MEL melanoma was > 100 µM throughout. For the same compound, the TGI in the experiment with KM20L2 colon and with RXF-631 renal was > 100 µM each time.

`O=C1NC2=C(CCCCC/C2=N\O)C12CCCCCC2`: the TGI with HOP-18 NSCLC, with DMS 273 small cell lung, in the experiment with XF 498 CNS, in the experiment on DMS 114 small cell lung, in the experiment on SNB-78 CNS and in the experiment with M19-MEL melanoma was > 100 µM in each case.

In the experiment on MDA-N, `COCC([C@@H](O)C(O)C(=O)NCC[C@@H](C)c1nc(/C=C/CC2OC3(C[C@H](O)C2C)OC(C(C[C@H](O)C(C)[C@H](O)C(C)/C=C(C)/C(C)=C/C=C/C(C)=C/C#N)OC)[C@@H](OP(=O)(O)O)C3(C)C)co1)N(C)C` (some centres undefined) returned a TGI of 0.000358 µM.

For `O=[N+]([O-])c1cccc(C2=NN(c3ccccc3)C3c4cc(Br)ccc4OCC23)c1` (centres undefined), the TGI in the experiment on HOP-18 NSCLC, in the experiment on DMS 273 small cell lung, in the experiment with XF 498 CNS, in the experiment on DMS 114 small cell lung, in the experiment on SNB-78 CNS and in the experiment on M19-MEL melanoma was > 100 µM each time. Moreover, the TGI in the experiment on KM20L2 colon was > 100 µM.

On to `Cc1nc2ccccc2nc1CC(=O)C(=O)Nc1ccc(Cl)cc1Cl`, for which the TGI in the experiment on DMS 273 small cell lung, in the experiment with SNB-78 CNS, in the experiment on M19-MEL melanoma, in the experiment with KM20L2 colon and in the experiment with RXF-631 renal was > 100 µM each time.

Take `Cc1cc(O)c2c(c1)C(=O)C=CC2=O`: the TGI in the experiment with MDA-N was 9.13 µM and 4.68 µM.

For `CC1=C(C(=O)Nc2ccccc2)C(c2ccc(N(C)C)cc2)C(C(=O)Nc2ccccc2)=C(C)N1`, the TGI in the experiment on HOP-18 NSCLC is > 100 µM; in the experiment with DMS 273 small cell lung, > 31.8 µM; with XF 498 CNS, > 100 µM; in the experiment on DMS 114 small cell lung, 6.57 µM; in the experiment with MDA-N it was > 100 µM; with SNB-78 CNS, > 100 µM. The values for the TGI in the experiment with M19-MEL melanoma and in the experiment on KM20L2 colon were > 28.9 µM and 7.26 µM, respectively.

As to `O=C1[C@@H]2C(c3c(Cl)cccc3Cl)=NO[C@@H]2C(=O)N1c1ccc(Cc2ccc(N3C(=O)[C@H]4C(c5c(Cl)cccc5Cl)=NO[C@H]4C3=O)cc2)cc1`, the TGI with HOP-18 NSCLC, in the experiment on DMS 273 small cell lung, with XF 498 CNS, in the experiment with DMS 114 small cell lung, in the experiment on SNB-78 CNS and with M19-MEL melanoma was > 100 µM in each case. Further, the TGI with KM20L2 colon was > 100 µM.

As for `Cc1ccc2c(c1)CN1c3ccc(C)cc3CN2C1c1ccccc1O`, the TGI in the experiment with DMS 273 small cell lung, in the experiment with DMS 114 small cell lung, in the experiment on SNB-78 CNS and in the experiment with M19-MEL melanoma was > 100 µM in each case.

Take `N#CC(C(=O)C(=O)Nc1c(Cl)cccc1Cl)c1ccccc1` (centres undefined): the GI50 in the experiment on HOP-18 NSCLC, with DMS 273 small cell lung, in the experiment on DMS 114 small cell lung, in the experiment on SNB-78 CNS, with M19-MEL melanoma and with RXF-631 renal was > 100 µM throughout. Moreover, the TGI with HOP-18 NSCLC, in the experiment with DMS 273 small cell lung, in the experiment on XF 498 CNS, with DMS 114 small cell lung, with SNB-78 CNS and in the experiment on M19-MEL melanoma was > 100 µM each time. Moreover, in the experiment with RXF-631 renal, the TGI is > 100 µM.

In the case of `Cc1nc(N)nc(CCC(=O)Nc2cccc(C(F)(F)F)c2)c1-c1ccc(Cl)cc1`, the TGI in the experiment on HOP-18 NSCLC, in the experiment on DMS 273 small cell lung, in the experiment on XF 498 CNS, in the experiment on DMS 114 small cell lung, in the experiment on SNB-78 CNS and in the experiment on M19-MEL melanoma was > 100 µM in each case. The TGI in the experiment on KM20L2 colon and in the experiment with RXF-631 renal was > 100 µM each time.

As to `O=[N+]([O-])c1ccccc1C1SCc2nc3ccccc3n21` (centres undefined), the TGI in the experiment with HOP-18 NSCLC, in the experiment on DMS 273 small cell lung, with XF 498 CNS, with DMS 114 small cell lung and with RXF-631 renal was > 100 µM throughout.

In the case of `COc1cc(Nc2cnc3ccc(C(F)(F)F)cc3n2)cc(OC)c1OC`, the TGI in the experiment on HOP-18 NSCLC was > 100 µM; in the experiment with DMS 273 small cell lung it was > 100 µM; in the experiment on SNB-78 CNS, > 100 µM; with M19-MEL melanoma, > 100 µM; with KM20L2 colon, 22.5 µM.

As for `COC(=O)C1C(=O)O[C@@H](c2ccc3c(c2)OCO3)C1C(=O)OC` (mixture of isomers), the TGI in the experiment with DMS 273 small cell lung, with DMS 114 small cell lung, in the experiment with SNB-78 CNS, with M19-MEL melanoma, with KM20L2 colon and with RXF-631 renal was > 100 µM each time.

In the case of `CC(Br)C(=O)NC(CO)C(=O)O` (centres undefined), in the experiment with MDA-N, the TGI is > 100 µM.
